Test results from patent US9096589B2, “Heteroaromatic phenylimidazole derivatives as PDE10A enzyme inhibitors” (H. Lundbeck A/S, priority 2009, dated 2015).

Columns and labels:
rats [1] = settings: cited from earlier work
rats [2] = settings: cited from earlier work; remark: listed apart in the source
rats [3] = settings: cited from earlier work; remark: listed apart in the source
PDE10A = PDE10A (Homo sapiens (Human), UniProt Q9Y233); assay: PDE10A inhibition assay; type: biochemical
Outline: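 Human PDE10A catalytic domain (aa 440-779) was expressed in E. coli BL21(DE3), with enzyme set to convert 20-25% of substrate. Reactions used 5 nM [3H]cAMP in 50 mM HEPES pH 7.6, 10 mM MgCl2, 0.02% Tween20 and 0.1 mg/ml BSA for 1 h at rt, read by yttrium silicate SPA. IC50 is relative to the uninhibited control.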

Chain of PDE10A (Q9Y233 716-1055): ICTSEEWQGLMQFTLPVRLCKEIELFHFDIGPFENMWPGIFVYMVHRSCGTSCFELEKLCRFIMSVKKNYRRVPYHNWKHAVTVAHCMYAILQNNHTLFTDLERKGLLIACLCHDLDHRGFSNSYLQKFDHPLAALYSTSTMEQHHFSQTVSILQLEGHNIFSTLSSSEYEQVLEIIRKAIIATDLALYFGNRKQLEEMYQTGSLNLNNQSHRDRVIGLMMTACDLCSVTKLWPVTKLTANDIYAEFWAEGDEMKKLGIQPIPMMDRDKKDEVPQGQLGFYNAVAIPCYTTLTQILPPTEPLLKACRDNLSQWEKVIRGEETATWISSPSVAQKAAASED

COc1ccc(Cc2nccc3cc(OC)c(OC)cc23)cc1OC [Papaverine, papaverine]
catalepsy on its own (rats [1]; alone): did not cause catalepsy on its own | effect on the cataleptic effect of the D2 receptor antagonist haloperidol (rats [1]; with haloperidol): potentiated the cataleptic effect | hyperactivity induced by PCP (rats [2]): reduced hyperactivity | reduction of amphetamine induced hyperactivity (rats [3]): insignificant

CNC[C@H](O)Cn1cc(-c2cccs2)nc1CCc1nc2cccc(C)n2n1 [(S)-1-Methylamino-3-{2-[2-(5-methyl-[1,2,4]triazolo[1,5-a]pyridin-2-yl)-ethyl]-4-thiophen-2-yl-imidazol-1-yl}-propan-2-ol]
IC50 (PDE10A): 0.07 µM

Cc1cccc2nc(CCc3nc(-c4cccs4)c[nH]3)nn12 [5-Methyl-2-[2-(4-thiophen-2-yl-1H-imidazol-2-yl)-ethyl]-[1,2,4]triazolo[1,5-a]pyridine]
IC50 (PDE10A): 0.00054 µM

COc1cccn2nc(/C=C/c3nc(-c4ccsc4)cn3C)nc12 [8-Methoxy-2-[(E)-2-(1-methyl-4-thiophen-3-yl-1H-imidazol-2-yl)-vinyl]-[1,2,4]triazolo[1,5-a]pyridine]
IC50 (PDE10A): 0.052 µM

COCCn1cc(-c2cncs2)nc1CCc1cn2c(C)cc(C)nc2n1 [2-{2-[1-(2-Methoxy-ethyl)-4-thiazol-5-yl-1H-imidazol-2-yl]-ethyl}-5,7-dimethyl-imidazo[1,2-a]pyrimidine]
IC50 (PDE10A): 0.21 µM

Cn1cc(-c2cccs2)nc1CCc1nc2c(F)cccn2n1 [8-Fluoro-2-[2-(1-methyl-4-thiophen-2-yl-1H-imidazol-2-yl)-ethyl]-[1,2,4]triazolo[1,5-a]pyridine]
IC50 (PDE10A): 0.047 µM

Cc1ncc(C)n2nc(CCc3nc(-c4nccs4)cn3C)nc12 [5,8-Dimethyl-2-[2-(1-methyl-4-thiazol-2-yl-1H-imidazol-2-yl)-ethyl]-[1,2,4]triazolo[1,5-a]pyrazine]
IC50 (PDE10A): 0.0027 µM
